The values below come from patent US9453026B2, “ACC inhibitors and uses thereof” (Gilead Apollo, Inc., priority 2011, dated 2016).

Molecules are shown by their SMILES. Where only a bound is given, the exact number is not on record here.

Assay [1] deals with ACC1. Conditions: ACC1 isolated from rat, mouse, monkey and human; cited from earlier work.
The subject of assay [2] is ACC2. The note with it: ACC2 isolated from rat, mouse, monkey and human; cited from earlier work.
The target in assay [3] is ACC1 (Homo sapiens, UniProt Q13085). Put plainly: In vitro ACC1 inhibition assay (ADP-Glo). The class given is biochemical. The note with it: read-out: ACC1. A digest of the protocol:
(§1)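 Enzyme (human ACC1 or ACC2) and compound, serially diluted 1:3 over 11 points from a 600 uM DMSO stock, were preincubated 15 min before substrate addition.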
On the technique in general: In ADP-Glo the light output rises with the ADP produced.

The target in assay [4] is ACC2 (Homo sapiens, UniProt O00763). The experiment in a line: In vitro ACC2 inhibition assay (ADP-Glo). The class given is biochemical. The note with it: read-out: ACC2. A digest of the protocol: as §1
ACC2 (Homo sapiens, UniProt O00763), sequence (O00763 whole entry, species assumed): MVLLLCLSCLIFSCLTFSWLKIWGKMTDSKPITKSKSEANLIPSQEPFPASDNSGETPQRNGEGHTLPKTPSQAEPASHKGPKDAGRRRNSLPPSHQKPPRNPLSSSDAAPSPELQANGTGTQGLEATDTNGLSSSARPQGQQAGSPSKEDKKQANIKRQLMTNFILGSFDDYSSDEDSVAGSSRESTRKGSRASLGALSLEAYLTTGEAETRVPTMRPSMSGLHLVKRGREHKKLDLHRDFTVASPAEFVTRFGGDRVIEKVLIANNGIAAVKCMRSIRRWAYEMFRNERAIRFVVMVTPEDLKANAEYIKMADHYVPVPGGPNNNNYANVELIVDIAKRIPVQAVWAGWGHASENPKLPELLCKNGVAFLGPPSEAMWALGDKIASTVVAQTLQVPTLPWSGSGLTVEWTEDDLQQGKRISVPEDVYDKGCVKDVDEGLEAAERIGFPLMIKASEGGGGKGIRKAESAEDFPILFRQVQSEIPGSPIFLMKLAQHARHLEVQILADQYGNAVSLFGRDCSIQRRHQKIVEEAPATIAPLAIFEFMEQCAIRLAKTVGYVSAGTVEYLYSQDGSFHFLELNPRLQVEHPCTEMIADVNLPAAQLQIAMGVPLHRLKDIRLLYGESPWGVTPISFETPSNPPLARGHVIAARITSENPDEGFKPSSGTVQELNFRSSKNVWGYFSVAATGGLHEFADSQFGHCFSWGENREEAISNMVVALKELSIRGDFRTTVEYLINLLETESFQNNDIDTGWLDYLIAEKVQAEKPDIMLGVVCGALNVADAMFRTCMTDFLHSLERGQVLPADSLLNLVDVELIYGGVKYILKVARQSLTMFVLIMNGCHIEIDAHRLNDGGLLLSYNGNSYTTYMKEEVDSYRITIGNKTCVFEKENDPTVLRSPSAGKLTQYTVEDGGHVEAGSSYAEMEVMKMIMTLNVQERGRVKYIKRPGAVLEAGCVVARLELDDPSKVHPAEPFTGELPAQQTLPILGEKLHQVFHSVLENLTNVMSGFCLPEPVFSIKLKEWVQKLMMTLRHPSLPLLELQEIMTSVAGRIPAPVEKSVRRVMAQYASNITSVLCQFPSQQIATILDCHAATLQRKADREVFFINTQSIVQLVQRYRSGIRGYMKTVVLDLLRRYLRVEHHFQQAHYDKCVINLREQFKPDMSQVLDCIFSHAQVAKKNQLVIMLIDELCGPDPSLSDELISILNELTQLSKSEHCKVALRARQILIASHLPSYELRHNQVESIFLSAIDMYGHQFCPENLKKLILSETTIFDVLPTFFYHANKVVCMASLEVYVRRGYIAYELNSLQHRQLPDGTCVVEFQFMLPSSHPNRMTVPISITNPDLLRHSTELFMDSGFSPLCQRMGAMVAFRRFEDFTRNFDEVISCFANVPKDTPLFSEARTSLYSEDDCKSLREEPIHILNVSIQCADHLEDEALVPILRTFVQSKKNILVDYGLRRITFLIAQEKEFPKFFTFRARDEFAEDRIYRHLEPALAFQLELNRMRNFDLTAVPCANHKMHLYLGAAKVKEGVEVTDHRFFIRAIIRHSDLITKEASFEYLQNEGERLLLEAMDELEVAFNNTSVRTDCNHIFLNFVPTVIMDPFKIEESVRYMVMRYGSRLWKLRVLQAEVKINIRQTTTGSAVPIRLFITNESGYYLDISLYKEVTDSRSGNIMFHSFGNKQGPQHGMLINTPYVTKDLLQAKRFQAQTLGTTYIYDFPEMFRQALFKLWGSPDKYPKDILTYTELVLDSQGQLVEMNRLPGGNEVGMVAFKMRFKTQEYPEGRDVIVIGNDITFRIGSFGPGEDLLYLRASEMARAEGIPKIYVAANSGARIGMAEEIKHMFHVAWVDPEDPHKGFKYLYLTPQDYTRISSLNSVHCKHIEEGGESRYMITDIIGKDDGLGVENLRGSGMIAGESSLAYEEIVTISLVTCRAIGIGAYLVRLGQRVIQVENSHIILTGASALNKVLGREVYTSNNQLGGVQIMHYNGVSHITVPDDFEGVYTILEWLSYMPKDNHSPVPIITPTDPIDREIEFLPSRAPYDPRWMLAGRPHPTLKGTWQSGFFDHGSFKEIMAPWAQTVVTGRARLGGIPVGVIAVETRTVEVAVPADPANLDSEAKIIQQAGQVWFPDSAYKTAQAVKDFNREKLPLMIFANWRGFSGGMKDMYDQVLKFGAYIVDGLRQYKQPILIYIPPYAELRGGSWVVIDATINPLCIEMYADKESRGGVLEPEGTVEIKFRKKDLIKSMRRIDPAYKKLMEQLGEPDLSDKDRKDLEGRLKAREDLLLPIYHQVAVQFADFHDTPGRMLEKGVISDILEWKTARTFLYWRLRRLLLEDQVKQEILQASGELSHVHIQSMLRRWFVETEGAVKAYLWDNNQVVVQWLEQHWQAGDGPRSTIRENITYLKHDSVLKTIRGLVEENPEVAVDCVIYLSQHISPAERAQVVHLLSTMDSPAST
The subject of a further assay is fatty acid synthesis. The experiment in a line: In Vivo Fatty Acid Synthesis Study ([C14]-acetate incorporated into rat liver tissue). Conditions: FIG. 16. The protocol: Compounds of the present invention were also assayed in an In Vivo Fatty Acid Synthesis Study as described by Harwood et al. “Isozyme-nonselective N-Substituted Bipiperidylcarboxamide Acetyl-CoA Carboxylase Inhibitors Reduce Tissue Malonyl-CoA Concentrations, Inhibit Fatty Acid Synthesis, and Increase Fatty Acid Oxidation in Cultured Cells and in Experimental Animals” Journal of Biological Chemistry (2008) 278, 37099-37111. An exemplary procedure for the assay, which measures the amount of radioactive [C^14]-acetate incorporated into rat liver tissue, follows.
Animals given food ad water ad libitum were treated orally at a volume of 1.0 mL/200 g body weight (rat) with either an aqueous solution containing 0.5% methylcellulose (vehicle), or an aqueous solution containing 0.5% methylcellulose plus test compound. One to four hours after compound administration, animals received an intraperitoneal injection of 0.5 mL of [C^14]-acetate (64 uCi/mL; […]). […] The pooled organic fractions were transferred to liquid scintillation vials, dried under nitrogen, dissolved in 7 mL of Aquasol liquid scintillation fluid, and assessed for radioactivity using a Beckman 6500 liquid scintillation counter. Results were recorded as disintigrations per minute (DPM) per milligram of tissue.

Another assay relates to ACC. Put plainly: IC50 quoted for Soraphen A in the thermal shift text. In kind it is biochemical.

For the compound `O=C(c1c2ccccc2cc2ccccc12)N1CCC(N2CCC[C@@H](C(=O)N3CCOCC3)C2)CC1` [CP-640186], the IC50 in the assay with ACC1 [1] and in the assay on ACC2 [2] was about 60 nM in each case.
As for `COc1ccccc1[C@H](Cn1c(=O)n(C(C)(C)C(=O)O)c(=O)c2c(C)c(-c3ncco3)sc21)O[C@H]1CC[C@@H](O)CC1` [I-278, 2-[1-[(2R)-2-[(4-hydroxycyclohexyl)oxy]-2-(2-methoxyphenyl)ethyl]-5-methyl-6-(1,3-oxazol-2-yl)-2,4-doxo-1H,2H,3H,4H-thieno[2,3-d]pyrimidin-3-yl]-2-methylpropanoic acid], the IC50 at ACC1 [3] and at ACC2 [4] was under 100 nM throughout. In addition, in the assay with fatty acid synthesis, the “fatty acid (FA) synthesis in rats” value is given as “dose-dependent decrease in FA synthesis”.
Take `CO[C@H]1CCCC[C@@H](c2ccccc2)OC(=O)[C@@H](C)[C@@]2(O)O[C@H]([C@@H](C)[C@H](O)[C@H]2OC)[C@@H](C)/C=C/[C@H]1OC` [Soraphen A]: the IC50 with ACC was 4 nM.
